Test results published in patent publication US6710066B2, “Photochemotherapeutic method using 5-aminolevulinic acid and other precursors of endogenous porphyrins” (priority 1989, dated 2004).

Key:
[1] = tested on: Enterobius vennicularis (pinworm); assay: PpIX accumulation on exposure to exogenous ALA, pinworm; conditions: exposed to exogenous ALA
P. chabaudi = assay: In vitro photosensitization of P. chabaudi, cells of infected mice incubated with ALA; assay type: cell-based, mouse
[2] = tested on: Dermatophyte (Trichophyton Species)
P. yoelii = assay: In vitro incubation of blood, spleen or marrow cells from P. yoelii infected mice with ALA; assay type: cell-based, mouse
Procedure: For the in vitro studies, no ALA was given to the donor mice. Two drops of whole blood were withdrawn from the tail of each mouse and placed in a 35 mm petri dish containing 3 cc of RPMI 1640 without phenol red.
i) a petri dish contained infected whole blood with […] ALA in RPMI.
ii) a second petri dish contained infected whole blood plus RPMI but not ALA.
iii) a third petri dish contained normal whole blood cells with 5 mM ALA in RPMI.
iv) a fourth petri dish contained normal whole blood cells with RPMI but not ALA.
All petri dishes were incubated at 37 Celsius and room air environment. Samples (0.5 cc) were taken at regular intervals from these incubated petri dishes to be analyzed in the flow cytometer to follow accumulation of PpIX.

C. albicans lesions = assay: PpIX fluorescence of intradermal C. albicans lesions in hairless mice given ALA; assay type: in vivo, mouse; conditions: 240 mg/kg ALA intraperitoneal, 3 hours
Procedure: The procedure of Giger et al. Infection and Immunity 19 (2) 499-509 (February 1978) was used with the following modifications. A clinical specimen of C. albicans was replated in blood agar so it was actively growing and left at room temperature for 72 hours. The sample was suspended in TSB to McFarland 0.5 turbidity after which a 1.0 ml sample was inoculated into an aerobic culture bottle and left shaking for 24 hours on a 37° C. rotor shaker. A 10 ml sample was withdrawn and centrifuged at […] for 10 minutes to separate the cells from the media. The supernate was discarded and the pellet resuspended in 10 ml of TSB. Serial dilusions (10^−1 to 10^−5) were made in and replicated twice on agar and left to incubate for two days at 37° C. […]
Three hours prior to their sacrifice, the mice were given 240 mg/kg ALA (10 mg/ml) by intraperitoneal injection, with the exception of mouse #3 which was used as a control. Fluorescence emission spectra on the live mice were taken every 15 minutes (mouse #1 readings every 20 minutes) for 3 hours after injection on each lesion, and at various control areas of the mice—neck skin flap and lateral side opposite the lesion on mouse 5. […] The frozen lesions were sectioned and slides were prepared for spectral analysis or fluorescence microscopy, H and E staining for histology, and Grocott silver stains for fungi identification.

[3] = tested on: endometrial and myometrial samples; assay: Fluorescence of endometrial and myometrial samples incubated with ALA; assay type: cell-based; conditions: 1 mM ALA
Procedure: The procedures of Example 1 (U.S. Pat. No. 5,422,093) were repeated with 1, 2, 3, 4 and 5 hour incubation periods using a level of 1 mM of ALA.

[4] = very large doses; cited from earlier work
[5] = tested on: endometrium (uterine horns); assay: Long term photodynamic endometrial ablation in rats; assay type: in vivo, rat
Procedure: Rats were divided into 2 groups (6 and 7 rats/group) and their uterine horns were injected with 4 or 8 mg ALA. Example 1, of U.S. application Ser. No. 08/082,113, filed Jun. 21, 1993 (U.S. Pat. No. 5,422,093), was repeated with the exception that all rats were exposed to light and the time from ALA administration to breeding was extended from 10-20 days to 60-70 days. All other procedures were identical to Example 1.
In the groups of rats (n=7) treated with 8 mg ALA 2 of 7 became pregnant in ALA treated uterine horns compared with 7 of 7 pregnancies in the saline treated horns.
In order to show normal uterine histology of a nonpregnant uterine horn contralateral to a pregnant uterine horn one uterine horn was ligated at its distal end prior to breeding. At gestation of 10-15 days nonpregnant uterine horns were harvested and histologically processed. The uterine mucosa was lined with columnar epithelium and there was hypertrophic infolding of endometrial tissue with tortuous glands.

acne lesions = assay: PpIX induced fluorescence in subjects with truncal acne after topical ALA; assay type: in vivo, human
Procedure: Evaluation of PpIX induced fluorescence in 8 subjects with mild to moderate truncal acne was performed. Bacterial infections are frequently associated with lesions of acne, e.g., P. acne. Following evaluation of baseline acne lesion fluorescence, ALA solution 10 and 20% was applied to 10 5 cm^2 sites on the chest or back of volunteers and evaluated at times 0, 3, 8 and 24 hours after ALA application. One site of each concentration was also occluded with opaque film for 3 hours and evaluated at similar time points for comparison with unoccluded sites. Fluorescence of both acneiform lesions as well as surrounding normal skin was assessed visually using a 4 point grading system (0=none, 4=extremely severe) and documented photographically.

[6] = tested on: Candida albicans, Candida glabrata, Cryptococcus neoformans, Penicillium species, Aspergillus niger, Aspergillus fumigatus, Alternaria species, Saccharomyces …; assay: In vitro PpIX fluorescence of yeast and fungi treated with ALA; assay type: cell-based; conditions: ALA 1 mM to 100 mM or 20-80% solutions in water
Procedure: Clinical isolates of Candida albicans, Candida glabrata, and Cryptococcus neoformans and environmental isolates of Penicillium species, Aspergillus niger, Aspergillus fumigatus, and Alternaria species and Saccharomyces cerivisiae (brewer's yeast) obtained from the clinical microbiology laboratories of Kingston General Hospital, Kingston, Ontario, Canada were used. The organisms were plated, and during rapid growth were treated with various concentrations of ALA varying from 1 mM to 100 mM by flooding or by using diffusion wells in the agar, while the isolates of Penicillium and Aspergillus were treated with 40% or 80% solutions of ALA in water and the Penicillium species, Alternaria species, Aspergillus niger and Aspergillus fumigatus were treated with 20% ALA in water via diffusion wells.

[7] = cells incubated with ALA in vitro
[8] = ALA solution 10 and 20%, unoccluded sites
[9] = sites occluded with opaque film for 3 hours

SMILES: NCC(=O)CCC(=O)O [ALA, 5-Amino-4-oxopentanoic acid]
- accumulation of fluorescing concentrations of PpIX [1]: ALA-induced fluorescence
- accumulation of photosensitizing concentrations of PpIX [1]: ALA-induced photosensitization
- PpIX accumulation in non-infected erythrocytes and leukocytes (P. chabaudi): significant concentrations of PpIX did not accumulate
- PpIX accumulation in plasmodia within erythrocytes (P. chabaudi): accumulated within many of the plasmodia
- appearance of toe upon completion of treatment ([2]; human, in vivo): erythematous and somewhat edematous
- subjective response during light exposure ([2]; human, in vivo): itching, stinging, and a sensation of mild burning
- clinical outcome of fungal infection ([2]; over the next few months after one treatment): all clinical evidence of the fungal infection vanished
- PpIX fluorescence of whole blood incubated with ALA, flow cytometer (P. yoelii; ALA in RPMI 1640 (5 nM infected, 5 mM normal blood as printed), 37 Celsius): Only cells from infected mice developed PpIX fluorescence when incubated with ALA
- PpIX accumulation in non-infected erythrocytes and leukocytes (P. yoelii; [7]): significant concentrations of PpIX did not accumulate
- PpIX accumulation in plasmodia within erythrocytes (P. yoelii; [7]): accumulated within many of the plasmodia
- PpIX accumulation in primary and secondary lesions (C. albicans lesions): increased PpIX accumulation relative to the control mice
- incubation time of maximum fluorescence in endometrial samples [3]: 4 h
- fluorescence in myometrial samples ([3]; 1-5 hour incubation): No significant fluorescence
- fluorescence in endometrial samples ([3]; incubated for 2 hours): No significant fluorescence
- effect on motor nerve conduction velocity [4]: transient decrease in motor nerve conduction velocity
- implantations in uterine horns treated with ALA ([5]; 4 mg ALA, light, breeding 60-70 days after photodynamic treatment, n=6): no implantations
- rats pregnant in ALA treated uterine horns ([5]; 8 mg ALA, light, breeding 60-70 days after treatment, n=7, saline horns 7 of 7): 2 of 7
- endometrial histology after photodynamic treatment ([5]; despite hormonal stimulus of contralateral pregnancy): atrophic endometrium
- PpIX fluorescence by 24 hours (acne lesions; [8]): weak or no fluorescence
- dose dependence of increase in PpIX fluorescence (acne lesions; [8]): dose dependent
- specificity of PpIX fluorescence (acne lesions; [8]): specific for acne lesions and spared normal surrounding skin
- time of maximum PpIX fluorescence (acne lesions; [8]): 8 h
- PpIX fluorescence at 24 hours (acne lesions; [9]): remained present at 24 hours
- distribution of PpIX fluorescence (acne lesions; [9]): developed PpIX fluorescence in both acne lesions and normal surrounding skin
- PpIX accumulation in molds and yeasts [6]: Positive PpIX accumulation
